Data: publication PMC5071857, “A unique peptide deformylase platform to rationally design and challenge novel active compounds” (Scientific Reports, 2016)
Read-outs that look alike come from different tables or passages of the source.

Legend:
SaPDF [1] = molecular target: T1, SaPDF (Streptococcus agalactiae serotype III, UniProt Q8E378, S2A); experiment: biochemical; conditions: for Ki: SaPDF KI, no pre-incubation, assay initiated by addition of enzyme, 40 nM SaPDF, 37 °C
T1 construct: the recombinant protein contains all residues of the 204 amino acids mature protein; made in house; host or cells: E. coli Rosetta 2(DE3)pLysS
T1 sequence (Q8E378 whole entry S2A): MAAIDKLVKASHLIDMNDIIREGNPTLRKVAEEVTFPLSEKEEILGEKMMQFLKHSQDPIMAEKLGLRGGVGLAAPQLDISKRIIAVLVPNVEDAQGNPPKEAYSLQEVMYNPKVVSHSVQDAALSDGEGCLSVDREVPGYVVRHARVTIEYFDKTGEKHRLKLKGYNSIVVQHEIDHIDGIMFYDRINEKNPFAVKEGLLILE
Method: (§1) Enzymatic activity was measured by a spectrophotometric assay where peptide deformylase activity is coupled to that of formate dehydrogenase. The formate released by the deformylation reaction is used by FDH to convert NAD in NADH, the production of which being measured over time at 340 nm and controlled temperature (37 °C). The 200 μL reaction mixture contained 50 mM HEPES-NaOH pH7.5, 12 mM NAD^+, 4.5 U/mL FDH, 1 mM NiCl2 and PDF enzyme (either 40 nM SaPDF or 10 nM EcPDF or 100 nM AtPDF1B) previously diluted in presence of 0.1 mg/mL BSA. The reaction was started by addition of 1–6 mM Fo-Met-Ala-Ser. Kinetics parameters (kcat, Km) were derived from iterative non-linear least square fits using the Michaelis-menten equation based on the experimental data (Sigma-Plot, Kinetics module).
(§2) 1/KI*app is the slope of the v0/vi curve in function of compound concentration, where v0 and vi are the initial reaction rates in absence and presence of compound, respectively.
(§3) Determination of KI values was performed with a slightly modified protocol: reaction was started by addition of enzyme instead of Fo-Met-Ala-Ser, the latter being directly added to the mixture containing increasing concentrations of each compound. No pre-incubation of enzyme in presence of compound was done. 1/KI is the slope of the v0/vi curve in function of compound concentration, where v0 and vi are the initial reaction rates in absence and presence of compound respectively.

EcPDF = molecular target: T2, EcPDF (Escherichia coli, UniProt P0A6K3); experiment: PDF inhibition, formate dehydrogenase-coupled spectrophotometric assay (EcPDF); format: biochemical; conditions: for EcPDF KI/KI*app: enhancement potency (slow tight-binding)
T2 construct: made in house
T2 sequence (P0A6K3 whole entry): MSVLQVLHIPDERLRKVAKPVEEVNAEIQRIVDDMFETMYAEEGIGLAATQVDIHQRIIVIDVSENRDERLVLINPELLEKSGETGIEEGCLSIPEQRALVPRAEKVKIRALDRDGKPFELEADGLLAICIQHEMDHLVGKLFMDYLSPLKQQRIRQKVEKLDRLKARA
Method: as §1, with “The” for “Enzymatic activity was measured by a spectrophotometric assay where peptide deformylase activity is coupled to that of formate dehydrogenase. The”
as §2, §3

AtPDF1B [2] = molecular target: T3, AtPDF1B (Arabidopsis thaliana, UniProt Q9FUZ2); experiment: PDF inhibition, formate dehydrogenase-coupled spectrophotometric assay (AtPDF1B); format: biochemical; conditions: for IC50 / Ki: 100 nM AtPDF1B; for IC50: 2 mM Fo-Met-Ala-Ser, 10 min pre-incubation at 37 °C; for Ki: PDFI pre-incubated with enzyme 10 min at 37 °C, started by 2 mM Fo-Met-Ala-Ser, read-out: AtPDF1B KI*app; for AtPDF1B KI/KI*app: enhancement potency (slow tight-binding)
T3 construct: made in house
T3 sequence (Q9FUZ2 83-273): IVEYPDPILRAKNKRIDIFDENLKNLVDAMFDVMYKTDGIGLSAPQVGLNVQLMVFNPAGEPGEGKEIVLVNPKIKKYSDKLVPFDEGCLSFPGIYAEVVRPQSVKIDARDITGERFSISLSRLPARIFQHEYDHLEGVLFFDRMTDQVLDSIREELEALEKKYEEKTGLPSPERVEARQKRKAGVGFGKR
Method: as §1, §2, §3

E. coli AG100 = experiment: MIC by microdilution, E. coli AG100; format: cell-based; conditions: 18 h at 37 °C, average of three assays; for MIC: Escherichia coli, AG100, without PMBN; for MIC AG100: with PMBN at 1/5 of its MIC
Description: (§4) Two E. coli strains, one B. subtilis strain, one S. aureus strain, one E. faecalis strain, one S. agalactiae strain and three Enterobacter aerogenes strains previously described were used. Briefly, AG100 was an E. coli wild type strain and AG100A its acrAB^- derivative. EA289 was a Kan^s derivative of an E. aerogenes multi-drug resistant (MDR) clinical isolate overexpressing AcrAB-TolC efflux pumps, and EA294 and EA298 its acrAB^- and tolC^- derivatives respectively. Strains were routinely grown at 37 °C on Luria-Bertani (LB) agar or in Mueller-Hinton II broth (MH), supplemented with kanamycine (50 μg.mL^−1) for AG100A, EA294 and EA298.
(§5) MIC values of antibiotics were determined by the microdilution method in liquid MH media in microplates in the absence or presence of chemosensitizers/modulators (e.g. PMBN, PAβN), as previously described. Permeabilization, blocking of efflux pumps, and isolates with different levels of porin or efflux expression were used to assess the involvement of the membrane barrier in antibiotic activity.
(§6) Susceptibilities were determined in 96-wells microplates with an inoculum of 2 × 10^5 cfu in 200 μL of MH broth containing two-fold serial dilutions of each antibiotics or compounds. Molecules were tested alone or in combination with other molecules in equimolar ratio. MICs were realized in the absence and in the presence of a membrane permeabilizer, the polymyxine B nonapeptide (PMBN) used at 51.2 mg/L (1/5 or 1/10 of its direct MIC previously determined). Actinonin and ciprofloxacin were used as internal antibiotic reference. […] Each test was systematically performed in triplicate. The average of three independent assays is presented in μg/mL in the respective tables.

[3] = tested on: E. coli AG100A (AcrAB- derivative); experiment: MIC by microdilution, E. coli AG100A; format: cell-based; conditions: for MIC: Escherichia coli, 18 h, read-out: MIC AG100A; for MIC AG100A: with PMBN at 1/5 of its MIC, 18 h at 37 °C, average of three assays
Description: as §4, §5, §6

[4] = tested on: E. aerogenes Ea289, MDR strain; experiment: MIC by microdilution, E. aerogenes Ea289; format: cell-based, Enterobacter aerogenes; conditions: for MIC Ea289: +PMBN at 1/5 of its MIC, average of three assays; for MIC: Klebsiella aerogenes, 18 h, read-out: MIC Ea289
Description: as §4, §5, §6

[5] = tested on: E. aerogenes Ea294, Ea289 derivative AcrAB-; experiment: MIC by microdilution, E. aerogenes Ea294; format: cell-based, Enterobacter aerogenes; conditions: for MIC Ea294: +PMBN at 1/5 of its MIC, average of three assays; for MIC: Klebsiella aerogenes, 18 h, read-out: MIC Ea294
Description: as §4, §5, §6

[6] = tested on: E. aerogenes Ea298, Ea289 derivative tolC-; experiment: MIC by microdilution, E. aerogenes Ea298; format: cell-based, Enterobacter aerogenes; conditions: Klebsiella aerogenes, 18 h, read-out: MIC Ea298
Description: as §4, §5, §6

SaPDF [7] = molecular target: T1, SaPDF; experiment: biochemical; conditions: SaPDF KI*app, PDFI pre-incubated with enzyme 10 min at 37 °C, started by 2 mM Fo-Met-Ala-Ser; 40 nM SaPDF
AtPDF1B [8] = molecular target: T3, AtPDF1B; experiment: PDF inhibition, formate dehydrogenase-coupled spectrophotometric assay (AtPDF1B); format: biochemical; conditions: no pre-incubation, assay initiated by addition of enzyme; 100 nM AtPDF1B; 37 °C
B. subtilis 168 = experiment: MIC, B. subtilis 168; format: cell-based; conditions: Bacillus subtilis
Description: as §4, §5, §6

S. aureus SA113 = experiment: MIC, S. aureus SA113; format: cell-based; conditions: Staphylococcus aureus
Description: as §4, §5, §6

E. faecalis EFA 103.214 = experiment: MIC, E. faecalis EFA 103.214; format: cell-based; conditions: Enterococcus faecalis, EFA103.214, read-out: MIC E. faecalis EFA 103.214
Description: as §4, §5, §6

[9] = EcPDF KI*app, PDFI pre-incubated with enzyme 10 min at 37 °C, started by 2 mM Fo-Met-Ala-Ser, 10 nM EcPDF
[10] = EcPDF KI, no pre-incubation, assay initiated by addition of enzyme, 10 nM EcPDF, 37 °C
[11] = 10 nM EcPDF, 2 mM Fo-Met-Ala-Ser, 10 min pre-incubation at 37 °C, read-out: IC50 EcPDF

SMILES	IC50 (SaPDF [1]) [nM]	Ki (SaPDF [1]) [nM]	IC50 (EcPDF) [nM]	Ki (EcPDF; [9]) [nM]	Ki (EcPDF; [10]) [nM]	EcPDF KI/KI*app (EcPDF)	IC50 (AtPDF1B [2]) [nM]	Ki (AtPDF1B [2]) [nM]	AtPDF1B KI/KI*app (AtPDF1B [2])	MIC (E. coli AG100) [µg/mL]	MIC AG100 (E. coli AG100) [µg/mL]	MIC [3] [µg/mL]	MIC AG100A [3] [µg/mL]	MIC Ea289 [4] [µg/mL]	MIC [4] [µg/mL]	MIC Ea294 [5] [µg/mL]	IC50 (EcPDF; [11]) [nM]	MIC (B. subtilis 168) [µg/mL]	MIC (S. aureus SA113) [µg/mL]	MIC (E. faecalis EFA 103.214) [µg/mL]	also measured
O=C(C[C@@H](CC1CCCC1)c1nc(Cc2ccc3c(c2)OCO3)no1)NO [AT020]	12 ± 3	63 ± 3	7 ± 2	1.9 ± 0.2	80 ± 3	42	119 ± 10	123 ± 5	2	> 64	8	16	4	32	> 128	8					MIC [5]: 128 µg/mL; MIC [6]: 128 µg/mL; Ki (SaPDF [7]): 8.5 ± 3 nM; Ki (AtPDF1B [8]): 238 ± 30 nM
CCCC[C@H](CC(=O)NO)c1nc(C(=O)N[C@H](C(N)=O)C(C)C)co1 [AT010]										> 64	>64	> 64	>64				420	> 64	> 64	> 64	
CCCCC(CC(=O)NO)c1nc(C(N)=O)co1 (stereo not shown) [AT007]										> 64	>64	> 64	>64				740	> 64	> 64	> 64	
CCCC[C@H](CC(=O)NO)c1nc(C(=O)N[C@H](C(=O)OC)C(C)C)co1 [AT009]										> 64	>64	> 64	>64				330	> 64	> 64	> 64	
O=C(C[C@@H](CC1CCCC1)c1nc(Cc2coc3ccccc23)no1)NO [AT019]	7 ± 1	65 ± 6	6 ± 1	1.1 ± 0.3	76 ± 4	69	77 ± 5	54 ± 2	5	> 64	2	16	0.5	16	> 128	2					MIC [5]: 128 µg/mL; MIC [6]: 64 µg/mL; Ki (SaPDF [7]): 7.5 ± 2 nM; Ki (AtPDF1B [8]): 263 ± 26 nM
